Assay results reported in PubChem BioAssay AID1963981 (Molecular Pharmacology Branch, DTP, NCI, 2024).
pIC50: −log10 of the molar value. Several values for one entry are separate records, joined by “and”; a condition that tells them apart may be missing. Equal entries are not always repeated.

Test system: 354836-022-R-J1-PDC multicell spheroid viability
Assay: Anticancer human tumor 354836-022-R-J1-PDC patient-derived head and neck squamous cell carcinoma cell line growth inhibition [PI3K]
Conditions: for viability, T/C: stronger effect = lower value
Procedure, shortened: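 Multi-cell spheroids combine tumor cells with HUVEC and human MSCs, treated with targeted agents alone or with inavolisib, alpelisib, duvelisib or copanlisib. Concentrations fall in half-log steps from at or near clinical Cmax, or from 10 microM where Cmax is unknown; viability read-out.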

[1] = curve of first compound, second compound 0.00316 µM
[2] = curve of first compound, second compound 0.01 µM
[3] = curve of first compound, second compound 0.0316 µM
[4] = curve of first compound, second compound 0.1 µM
[5] = curve of first compound, second compound 0.316 µM
[6] = curve of first compound, second compound 1 µM
[7] = second compound 0.00316 µM, first compound 0.0316 µM
[8] = second compound 0.00316 µM, first compound 0.1 µM
[9] = second compound 0.00316 µM, first compound 0.316 µM
[10] = second compound 0.00316 µM, first compound 1 µM
[11] = second compound 0.00316 µM, first compound 3.16 µM
[12] = second compound 0.00316 µM, first compound 10 µM
[13] = second compound 0.01 µM, first compound 0.0316 µM
[14] = second compound 0.01 µM, first compound 0.1 µM
[15] = second compound 0.01 µM, first compound 0.316 µM
[16] = second compound 0.01 µM, first compound 1 µM
[17] = second compound 0.01 µM, first compound 3.16 µM
[18] = second compound 0.01 µM, first compound 10 µM
[19] = second compound 0.0316 µM, first compound 0.0316 µM
[20] = second compound 0.0316 µM, first compound 0.1 µM
[21] = second compound 0.0316 µM, first compound 0.316 µM
[22] = second compound 0.0316 µM, first compound 1 µM
[23] = second compound 0.0316 µM, first compound 3.16 µM
[24] = second compound 0.0316 µM, first compound 10 µM
[25] = second compound 0.1 µM, first compound 0.0316 µM
[26] = second compound 0.1 µM, first compound 0.1 µM
[27] = second compound 0.1 µM, first compound 0.316 µM
[28] = second compound 0.1 µM, first compound 1 µM
[29] = second compound 0.1 µM, first compound 3.16 µM
[30] = second compound 0.1 µM, first compound 10 µM
[31] = second compound 0.316 µM, first compound 0.0316 µM
[32] = second compound 0.316 µM, first compound 0.1 µM
[33] = second compound 0.316 µM, first compound 0.316 µM
[34] = second compound 0.316 µM, first compound 1 µM
[35] = second compound 0.316 µM, first compound 3.16 µM
[36] = second compound 0.316 µM, first compound 10 µM
[37] = second compound 1 µM, first compound 0.0316 µM
[38] = second compound 1 µM, first compound 0.1 µM
[39] = second compound 1 µM, first compound 0.316 µM
[40] = second compound 1 µM, first compound 1 µM
[41] = second compound 1 µM, first compound 3.16 µM
[42] = second compound 1 µM, first compound 10 µM
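Further: spheroids exposed to agents for seven days before the viability read.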

With `C#Cc1c(F)ccc2cc(O)cc(-c3ncc4c(N5CC6CCC(C5)N6)nc(OCC56CCCN5CC(F)C6)nc4c3F)c12` (stereo not given) + COc1c(OCCCN2CCOCC2)ccc2c3n(c(=NC(=O)c4cnc(N)nc4)nc12)CCN3 the pIC50 [1] was < 5.00, the pIC50 [2] was < 5.00 and the pIC50 [3] was < 5.00. For the same compound, the pIC50 [4] was 6.29, the pIC50 [5] was > 7.50 and the pIC50 [6] was > 7.50. The viability, T/C [7] was 113%, the viability, T/C [8] was 102% and the viability, T/C [9] was 107%. It also gave a viability, T/C [10] of 108%, a viability, T/C [11] of 111% and a viability, T/C [12] of 92.8%. For the same compound, the viability, T/C [13] was 98%, the viability, T/C [14] was 99% and the viability, T/C [15] was 96.3%. For the same compound, the viability, T/C [16] was 116%, the viability, T/C [17] was 92% and the viability, T/C [18] was 101%. For the same compound, the viability, T/C [19] was 79.4%, the viability, T/C [20] was 84.2% and the viability, T/C [21] was 96.4%. The viability, T/C [22] was 89.7%, the viability, T/C [23] was 74.1% and the viability, T/C [24] was 77.1%. The viability, T/C [25] was 56.1%, the viability, T/C [26] was 67.8% and the viability, T/C [27] was 52.9%. It also gave a viability, T/C [28] of 47.1%, a viability, T/C [29] of 45.6% and a viability, T/C [30] of 45.4%. For the same compound, the viability, T/C [31] was 14.6%, the viability, T/C [32] was 14% and the viability, T/C [33] was 12.9%. It also gave a viability, T/C [34] of 14.6%, a viability, T/C [35] of 11.4% and a viability, T/C [36] of 3.3%. The viability, T/C [37] was 2.48%, the viability, T/C [38] was 2.22% and the viability, T/C [39] was 1.66%. For the same compound, the viability, T/C [40] was 1.78%, the viability, T/C [41] was 1.73% and the viability, T/C [42] was 0.66%.
For `Cn1nccc1Nc1nccc(-c2ccn(C(CO)c3ccc(Cl)c(F)c3)c(=O)c2)n1` (stereo not given) + CC(Nc1ccc2c(c1)OCCn1cc(N3C(=O)OCC3C(F)F)nc1-2)C(N)=O, the pIC50 [1] was < 5.00, the pIC50 [2] was < 5.00 and the pIC50 [3] was < 5.00. For the same compound, the pIC50 [4] was < 5.00, the pIC50 [5] was < 5.00 and the pIC50 [6] was < 5.00. For the same compound, the viability, T/C [7] was 91.2%, the viability, T/C [8] was 86.8% and the viability, T/C [9] was 112%. The viability, T/C [10] was 92.6%, the viability, T/C [11] was 93.5% and the viability, T/C [12] was 88.1%. For the same compound, the viability, T/C [13] was 105%, the viability, T/C [14] was 92.5% and the viability, T/C [15] was 101%. For the same compound, the viability, T/C [16] was 95.1%, the viability, T/C [17] was 101% and the viability, T/C [18] was 88.5%. The viability, T/C [19] was 103%, the viability, T/C [20] was 92.4% and the viability, T/C [21] was 88.7%. For the same compound, the viability, T/C [22] was 88.6%, the viability, T/C [23] was 127% and the viability, T/C [24] was 98.2%. The viability, T/C [25] was 74.2%, the viability, T/C [26] was 100% and the viability, T/C [27] was 94.6%. The viability, T/C [28] was 88.7%, the viability, T/C [29] was 100% and the viability, T/C [30] was 98.4%. For the same compound, the viability, T/C [31] was 59.9%, the viability, T/C [32] was 73.3% and the viability, T/C [33] was 75.2%. The viability, T/C [34] was 72%, the viability, T/C [35] was 71.5% and the viability, T/C [36] was 71.8%. For the same compound, the viability, T/C [37] was 58.8%, the viability, T/C [38] was 50.1% and the viability, T/C [39] was 55.4%. For the same compound, the viability, T/C [40] was 62.4%, the viability, T/C [41] was 61.4% and the viability, T/C [42] was 41.4%.
`CCN1CCN(Cc2ccc(Nc3ncc(F)c(-c4cc(F)c5nc(C)n(C(C)C)c5c4)n3)nc2)CC1` was tested, and the viability, T/C (compound 0.00316 µM) was 111% [middle of 4 runs], the viability, T/C (compound 0.01 µM) was 94.4% [middle of 4 runs] and the viability, T/C (compound 0.0316 µM) was 98.2% [middle of 4 runs]. For the same compound, the viability, T/C (compound 0.1 µM) was 90% and 99.5% and 87.3% (2×), the viability, T/C (compound 0.316 µM) was 94% [middle of 4 runs] and the pIC50 (curve of compound) was < 6.00 and 6.08.
